Results reported in patent US12060400B2, “Peptides for use in immunotherapy against cancers” (Immatics Biotechnologies GmbH, priority 2018, dated 2024).

system: HLA-A*24; assay: MHC binding assay: UV-ligand exchange with beta2m ELISA (peptide exchange yield); set-up: species or system human; conditions: Table 11, binding to HLA-A*24, UV-ligand exchange
In short: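 Peptide-MHC complexes generated by UV-induced exchange of a photocleavable ligand with the test peptide; exchange yield quantified by streptavidin-capture ELISA detecting β2m (HRP anti-β2m, TMB, A450). Samples diluted 100-fold, with refolded HLA-A*02:01/MLA-001 monomers (15-500 ng/ml) as standards.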

Peptide exchange (MHC class I binding score, peptide exchange yield) | Substance
+++ (>50 = +++) | 51 (YFDENIQKF; listed as Homo sapiens) [compound 51]
++++ (>75% = ++++) | 295 (KYNRQSMTL; listed as Homo sapiens) [compound 295]
+++ (>50 = +++) | 152 (MHPGVLAAFLF; listed as Homo sapiens) [compound 152]
++++ (>75% = ++++) | 381 (IYTDITYSF; listed as Homo sapiens) [compound 381]
+++ (>50 = +++) | 272 (IYFNHRCF; listed as Homo sapiens) [compound 272]
++++ (>75% = ++++) | 128 (AFQNVISSF; listed as Homo sapiens) [compound 128]
++++ (>75% = ++++) | 355 (VYNNNSSRF; listed as Homo sapiens) [compound 355]
+++ (>50 = +++) | 307 (RILTEFELL; listed as Homo sapiens) [compound 307]
++++ (>75% = ++++) | 84 (YTIERYFTL; listed as Homo sapiens) [compound 84]
++ (>20% = ++) | 370 (TQMDVKLVF; listed as Homo sapiens) [compound 370]
++++ (>75% = ++++) | 171 (LYTVPFNLI; listed as Homo sapiens) [compound 171]
++++ (>75% = ++++) | 74 (NYVLVPTMF; listed as Homo sapiens) [compound 74]
++ (>20% = ++) | 45 (YGQSKPWTF; listed as Homo sapiens) [compound 45]
++++ (>75% = ++++) | 303 (RFLDRGWGF; listed as Homo sapiens) [compound 303]
+++ (>50 = +++) | 135 (KYKQHFPEI; listed as Homo sapiens) [compound 135]
++ (>20% = ++) | 157 (SIYPHGVTF; listed as Homo sapiens) [compound 157]
++ (>20% = ++) | 175 (SYFEYRRLL; listed as Homo sapiens) [compound 175]
+ (>10% = +) | 283 (SYIVDGKII; listed as Homo sapiens) [compound 283]
++ (>20% = ++) | 121 (RRYFGEKVAL; listed as Homo sapiens) [compound 121]
+ (>10% = +) | 116 (TYFFVANKY; listed as Homo sapiens) [compound 116]
++ (>20% = ++) | 111 (IRPDYSFQF; listed as Homo sapiens) [compound 111]
++ (>20% = ++) | 278 (TYESVVTGFF; listed as Homo sapiens) [compound 278]
++ (>20% = ++) | 302 (YQGSLEVLF; listed as Homo sapiens) [compound 302]
+++ (>50 = +++) | 10 (QYPEFSIEL; listed as Homo sapiens) [compound 10]
+ (>10% = +) | 223 (KLRALSILF; listed as Homo sapiens) [compound 223]
++++ (>75% = ++++) | 40 (NYPEGAAYEF; listed as Homo sapiens) [compound 40]

Peptide exchange (MHC class I binding score, peptide exchange yield) | Substance
++++ (>75% = ++++) | 80 (SYATPVDLW; listed as Homo sapiens) [compound 80]
++++ (>75% = ++++) | 192 (CYSFIHLSF; listed as Homo sapiens) [compound 192]
++ (>20% = ++) | 215 (KASKITFHW; listed as Homo sapiens) [compound 215]
++++ (>75% = ++++) | 176 (TQAGEYLLF; listed as Homo sapiens) [compound 176]
+ (>10% = +) | 151 (RRLWAYVTI; listed as Homo sapiens) [compound 151]
++++ (>75% = ++++) | 275 (PEYSLPVLTF; listed as Homo sapiens) [compound 275]
++++ (>75% = ++++) | 349 (IYMTTGVLL; listed as Homo sapiens) [compound 349]
+++ (>50 = +++) | 158 (SYLKDPMIV; listed as Homo sapiens) [compound 158]
++++ (>75% = ++++) | 343 (EYQQYHPSL; listed as Homo sapiens) [compound 343]
+++ (>50 = +++) | 67 (SYVLQIVAI; listed as Homo sapiens) [compound 67]
+++ (>50 = +++) | 377 (SLWREVVTF; listed as Homo sapiens) [compound 377]
++ (>20% = ++) | 265 (LYQQSDTWSL; listed as Homo sapiens) [compound 265]
++ (>20% = ++) | 266 (TQIITFESF; listed as Homo sapiens) [compound 266]
++++ (>75% = ++++) | 180 (IYNKTKMAF; listed as Homo sapiens) [compound 180]
++++ (>75% = ++++) | 315 (VYDYIPLLL; listed as Homo sapiens) [compound 315]
++++ (>75% = ++++) | 362 (NYMDTDNLMF; listed as Homo sapiens) [compound 362]
+ (>10% = +) | 254 (KQHAWLPLTI; listed as Homo sapiens) [compound 254]
+++ (>50 = +++) | 61 (RIFTARLYF; listed as Homo sapiens) [compound 61]
+++ (>50 = +++) | 214 (YIPMSVMLF; listed as Homo sapiens) [compound 214]
+ (>10% = +) | 98 (LQIPVSPSF; listed as Homo sapiens) [compound 98]
++ (>20% = ++) | 12 (KYMSRVLFVY; listed as Homo sapiens) [compound 12]
++ (>20% = ++) | 159 (VFQPNPLF; listed as Homo sapiens) [compound 159]
++ (>20% = ++) | 161 (ILQAPLSVF; listed as Homo sapiens) [compound 161]
++++ (>75% = ++++) | 89 (TYVPSTFLVVL; listed as Homo sapiens) [compound 89]
+++ (>50 = +++) | 53 (LFQRVSSVSF; listed as Homo sapiens) [compound 53]
